Assay results: patent publication US11096942B2, “Heterocyclic compounds and uses thereof” (Celgene CAR LLC, priority 2010, dated 2021)
Read-outs that look alike come from different tables or passages of the source.

Columns and labels:
[1] = target: EGFR L858R/T790M (H1975 cells) (Homo sapiens (Human), UniProt P00533, L858R/T790M); assay: Phospho-EGFR signaling immunoblot (1 hr), H1975 cells; assay type: cell-based; conditions: WT EGFR (A431) vs H1975
Method: (§1) A431 human epidermoid carcinoma, H1975 human NSCLC and HCC827 human NSCLC adenocarcinoma cells were obtained from the American Type Culture Center (Manassas, Va.). A431 cells were grown in DMEM (Invitrogen, Carlsbad, Calif.) supplemented with 10% FBS (HyClone, South Logan, Utah) and 1% Penicillin-Streptomycin (P/S, Lonza, Walkersville, Md.).
(§2) All primary antibodies were obtained from Cell Signaling (Danvers, Mass.) and used at 1:1000. Secondary antibodies were used at 1:10,000. Goat anti-mouse IgG IRDye 800CW antibody was obtained from LiCor Biosciences (Lincoln, Nebr.) and goat anti-rabbit IgG Alexa Fluor 680 was obtained from Invitrogen.
(§3) Cells were grown in 12-well plates (Corning, Coring, N.Y.) to 90% confluence and then incubated in low-serum (0.1% FBS) media for 16-18 hr. […] A431 cells were then stimulated with 50 ng/ml EGF (Peprotech, Rocky Hill, N.J.) for 15 min. After treatment, cell monolayers were washed with cold PBS (Invitrogen) and immediately lysed by scrapping into 60 uL cold Cell Extraction Buffer (Invitrogen) supplemented with Complete Protease inhibitors (Roche, Indianapolis, Ind.) and PhosphoSTOP (Roche) phosphatase inhibitors.
(§4) Phospho-protein signals were quantitated using Odyssey Infrared Imaging (Li-Cor Biosciences).
(§5) To assess phosphor-EGFR signaling, blots were probed with rabbit anti-Phospho-EGFR (Y1068) and mouse total anti-EGFR antibodies. Phospho-EGFR signal was normalized to total EGFR expression for each sample. […] Normalized data was fitted using a sigmoidal curve analysis program (Graph Pad Prism version 5) with variable Hill slope to determine the EC50 values.

[2] = test system: H1975 cells (EGFR L858R/T790M); assay: Cell proliferation (CellTiter Glo, 72 hr), H1975 cells; assay type: cell-based, human
Method: as §1
(§6) Cells were plated in Growth Media supplemented with 5% FBS and 1% P/S at a density of 3,000 cells per well in 96 well tissue culture plates (Corning). […] Growth inhibition (GI50) values were determined by Graph Pad Prism.

[3] = test system: HCC827 cells (EGFR delE746-A750); assay: Cell proliferation (CellTiter Glo, 72 hr), HCC827 cells; assay type: cell-based, human
Method: as §1, §6

[4] = target: pEGFR in H1975 cells (Homo sapiens (Human), UniProt P00533, L858R/T790M); assay: Washout experiment in H1975 cells; assay type: cell-based; conditions: 500 nM for 1 hr, then washout
Method: Washout Experiment in H1975 Cells Containing EGFR Deletion/T790M Mutation
Cells were plated in Growth Media supplemented with 10% FBS and 1% P/S at a density of 2.0×10^5 cells per well in 12 well tissue culture plates. Cells were allowed to settle down for 4 hrs and then maintained in low-serum (0.1% FBS) media overnight.
The following morning the media was removed and the cells were treated with 500 nM test compound in low-serum media for 1 hr. The cells were washed free of compound 2× with PBS (Invitrogen). One set of cells were immediately lysed as indicated above as the 0 hr time point. The remaining cells were incubated with complete RPMI-1640 growth media (10% FBS) for 1, 3, 6 and 24 hr. For the first 1 hr, cells were washed 2× with PBS every 30 min. DMSO (0.5%) controls were collected at the 0, 3, 6 and 24 hr time points.

[5] = target: EGFR delE746-A750 (HCC827 cells) (Homo sapiens (Human), UniProt P00533, DEL746-750); assay: Phospho-EGFR signaling immunoblot (1 hr), HCC827 cells; assay type: cell-based; conditions: WT EGFR (A431) vs HCC827
Method: as §1, §2, §3, §4, §5

[6] = proliferation, WT EGFR (A431) vs H1975
[7] = proliferation, WT EGFR (A431) vs HCC827

| SMILES | Ratio WT/mutant [1] | Ratio WT/mutant [5] | Ratio WT/mutant [2, 6] | Ratio WT/mutant [3, 7] | duration of action after compound removal [4] | Ratio WT/mutant [2] | Ratio WT/mutant [3] |
| --- | --- | --- | --- | --- | --- | --- | --- |
| C=CC(=O)Nc1cccc(Nc2nc(Nc3ccc(N4CCN(C(C)=O)CC4)cc3OC)ncc2C(F)(F)F)c1 [Compound I-4, N-(3-(2-(4-(4-acetylpiperazin-1-yl)-2-methoxyphenylamino)-5-(trifluoromethyl)pyrimidin-4-ylamino)phenyl)acrylamide] |  |  |  |  | prolonged duration of action after compound removal |  |  |
| C=CC(=O)Nc1cccc(Oc2nc(Nc3ccc(N4CCN(C(=O)CO)CC4)cc3OC)ncc2C(F)(F)F)c1 [Compound I-11, N-(3-(2-(4-(4-(2-hydroxyacetyl)piperazin-1-yl)-2-methoxyphenylamino)-5-(trifluoromethyl)pyrimidin-4-yloxy)phenyl)acrylamide] | >15 |  | >5 | >45 |  |  |  |
| C=CC(=O)Nc1cccc(Nc2nc(Nc3ccc(N4CCN(C(=O)CO)CC4)cc3OC)ncc2Cl)c1 [Compound I-12, N-(3-(5-chloro-2-(4-(4-(2-hydroxyacetyl)piperazin-1-yl)-2-methoxyphenylamino)pyrimidin-4-ylamino)phenyl)acrylamide] | >1 |  | >1 | >30 |  |  |  |
| C=CC(=O)Nc1cccc(Oc2nc(Nc3ccc(N4CCN(C(=O)NC)CC4)cc3OC)ncc2C(F)(F)F)c1 [Compound I-21, 4-(4-(4-(3-acrylamidophenoxy)-5-(trifluoromethyl)pyrimidin-2-ylamino)-3-methoxyphenyl)-N-methylpiperazine-1-carboxamide] | >5 |  | >1 | >20 |  |  |  |
| C=CC(=O)Nc1cccc(Oc2nc(Nc3ccc(N4CCN(S(C)(=O)=O)CC4)cc3OC)ncc2C(F)(F)F)c1 [Compound I-22, N-(3-(2-(2-methoxy-4-(4-(methylsulfonyl)piperazin-1-yl)phenylamino)-5-(trifluoromethyl)pyrimidin-4-yloxy)phenyl)acrylamide] | >35 |  | >10 | >35 |  |  |  |
| C=CC(=O)Nc1cccc(Oc2nc(Nc3ccc(N4CCN(S(C)(=O)=O)CC4)cc3OC)ncc2Cl)c1 [Compound I-26, N-(3-(5-chloro-2-(2-methoxy-4-(4-(methylsulfonyl)piperazin-1-yl)phenylamino)pyrimidin-4-yloxy)phenyl)acrylamide] | >40 |  | >1 | >35 |  |  |  |
| C=CC(=O)Nc1cccc(Nc2nc(Nc3ccc(N4CCN(C(C)=O)CC4)cc3OC)ncc2Br)c1 [Compound I-40, N-(3-(2-(4-(4-acetylpiperazin-1-yl)-2-methoxyphenylamino)-5-bromopyrimidin-4-ylamino)phenyl)acrylamide] | >1 |  | >5 | >10 |  |  |  |
| C=CC(=O)Nc1cccc(Nc2nc(Nc3ccc(N4CCN(S(C)(=O)=O)CC4)cc3OC)ncc2Cl)c1 [Compound I-41, N-(3-(5-chloro-2-(2-methoxy-4-(4-(methylsulfonyl)piperazin-1-yl)phenylamino)pyrimidin-4-ylamino)phenyl)acrylamide] | >1 |  | >1 | >20 |  |  |  |
| C=CC(=O)Nc1cccc(Oc2nc(Nc3ccc(N4CCN(C(=O)OC(C)(C)C)CC4)cc3OC)ncc2Cl)c1 [Compound I-46, tert-butyl 4-(4-(4-(3-acrylamidophenoxy)-5-chloropyrimidin-2-ylamino)-3-methoxyphenyl)piperazine-1-carboxylate] | >10 | >50 |  |  |  | >1 | >10 |
| C=CC(=O)Nc1cccc(Nc2nc(Nc3ccc(N4CCN(C(C)=O)[C@H](C(=O)OC)C4)cc3OC)ncc2C(F)(F)F)c1 [Compound I-48, (S)-methyl 1-acetyl-4-(4-(4-(3-acrylamidophenylamino)-5-(trifluoromethyl)pyrimidin-2-ylamino)-3-methoxyphenyl)piperazine-2-carboxylate] | >50 |  | >10 | >15 |  |  |  |

The next lines start with results.

| Ratio WT/mutant [1] | Ratio WT/mutant [5] | SMILES | Ratio WT/mutant [2, 6] | Ratio WT/mutant [3, 7] | duration of action after compound removal [4] | Ratio WT/mutant [2] | Ratio WT/mutant [3] |
| --- | --- | --- | --- | --- | --- | --- | --- |
| >50 |  | C=CC(=O)Nc1cccc(Nc2nc(Nc3ccc(N4CCOCC4)cc3OC)ncc2C(F)(F)F)c1 [Compound I-2, N-(3-(2-(2-methoxy-4-morpholinophenylamino)-5-(trifluoromethyl)pyrimidin-4-ylamino)phenyl)acrylamide] | >20 | >40 | prolonged duration of action after compound removal |  |  |
| >15 | >15 | C=CC(=O)Nc1cccc(Nc2nc(Nc3ccc(N4CCOCC4)cc3OC(F)F)ncc2C(F)(F)F)c1 [Compound I-14, N-(3-(2-(2-(difluoromethoxy)-4-morpholinophenylamino)-5-(trifluoromethyl)pyrimidin-4-ylamino)phenyl)acrlamide] | >5 | >10 |  |  |  |
| >30 | >5 | C=CC(=O)Nc1cccc(Nc2nc(Nc3ccc(N4CCN(S(C)(=O)=O)CC4)cc3OC)ncc2C(F)(F)F)c1 [Compound I-17, N-(3-(2-(2-methoxy-4-(4-(methylsulfonyl)piperazin-1-yl)phenylamino)-5-(trifluoromethyl)pyrimidin-4-ylamino)phenyl)acrylamide] | >10 | >15 |  |  |  |
| >50 |  | C=CC(=O)Nc1cccc(Nc2nc(Nc3ccc(N4CCN(C(C)=O)CC4)cc3OC(F)(F)F)ncc2C(F)(F)F)c1 [Compound I-33, N-(3-(2-(4-(4-acetylpiperazin-1-yl)-2-(trifluoromethoxy)phenylamino)-5-(trifluoromethyl)pyrimidin-4-ylamino)phenyl)acrylamide] | >30 | >15 |  |  |  |
| >35 |  | C=CC(=O)Nc1cccc(Nc2nc(Nc3ccc(N4CCN(C(=O)C(C)(C)C)CC4)cc3OC)ncc2C(F)(F)F)c1 [Compound I-34, N-(3-(2-(2-methoxy-4-(4-pivaloylpiperazin-1-yl)phenylamino)-5-(trifluoromethyl)pyrimidin-4-ylamino)phenyl)acrylamide] | >5 | >50 |  |  |  |
| >5 |  | C=CC(=O)Nc1cccc(Nc2nc(Nc3ccc(N4CCCN(C(=O)OC(C)(C)C)CC4)cc3OC)ncc2C(F)(F)F)c1 [Compound I-44, tert-butyl 4-(4-(4-(3-acrylamidophenylamino)-5-(trifluoromethyl)pyrimidin-2-ylamino)-3-methoxyphenyl)-1,4-diazpane-1-carboxylate] | >5 | >5 |  |  |  |
| >20 |  | C=CC(=O)Nc1cccc(Nc2nc(Nc3ccc(N4CCS(=O)(=O)CC4)cc3OC)ncc2C(F)(F)F)c1 [Compound I-49, N-(3-(2-(2-methoxy-4,4-dioxo-4-thiomorpholinophenylamino)-5-(trifluoromethyl)pyrimidin-4-ylamino)phenyl)acrylamide] | >10 | >25 |  |  |  |
